Paper PMC7408547, “Bivalent Inhibitor with Selectivity for Trimeric MMP-9 Amplifies Neutrophil Chemotaxis and Enables Functional Studies on MMP-9 Proteoforms” (Cells, 2020)

How the values were obtained:
[1] = molecular target: T1, recombinant human MMP-9 mixture (± 70% monomers and ± 30% trimers) (Homo sapiens, UniProt P14780); assay: Fluorogenic peptide (OmniMMP) degradation assay, recombinant MMP-9 mixture; format: biochemical; settings: recombinant human MMP-9 (Sf9) mix
T1 construct: made in house; host or cells: Sf9 insect cells
Procedure: (§1) Compounds 5 and 7 were synthesized as previously reported. Full-length human proMMP-9 was produced by recombinant expression in Sf9 insect cells and purified by gelatin-Sepharose chromatography as previously described. Stable full-length proMMP-9 monomers and trimers were separated by glycerol gradient ultracentrifugation as previously described. ProMMP-9 mixture and the separated monomers and trimers were activated by incubation with the catalytic domain of MMP-3 (cat. No. 444217, Merck Millipore, Darmstadt, Germany) as previously described. Activation of proMMP-9 was confirmed by a band shift of ±10 kDa, corresponding to the removal of the auto-inhibitory propeptide domain and by detection of gelatinolytic activity with a previously described gelatin degradation assay. MMP-9 monomers and trimers purified from human neutrophils were purchased (Cat. No. 444,231 and 444232, Sigma-Aldrich, St. Louis, MO, USA). Examples of sample purities and activations can be found in Supplementary Figure S1. Recombinant human proMMP-2 (CHO cell-derived), proMMP-3 (NS0 cell-derived), proMMP-7 (NS0 cell-derived) and proMMP-8 (NS0 cell-derived) were purchased from R & D systems (Minneapolis, MN, USA), dissolved in assay buffer (150 mM NaCl, 5 mM CaCl2, 0.01% Tween-20, 50 mM Tris, pH 7.4) to a concentration of 100 µg/mL and activated by incubation with 1 mM p-aminophenylmercuric acetate for, respectively, 1h, 6h, 2h and 1h. Activation of MMPs was confirmed by a band shift of approximately 10 kDa, corresponding to the removal of the propeptide domain. MMP-14/MT1-MMP (NS0 cell-derived) was also purchased from R & D systems (Minneapolis, MN, USA) and activated by incubation with recombinant human furin (cat. No. 1503-SE-010, R & D systems, Minneapolis, MO, USA) in activation buffer (50 mM Tris, 1 mM CaCl2, 0.5% Brij-35, pH 9) for 1.5 h and activity was tested in assay buffer (50 mM Tris, 3 mM CaCl2, 1 µM ZnCl2, pH 8.5). Active human neutrophil elastase (NE) was purchased from Abcam (Cambridge, UK) and for activity assays of NE the assay buffer was replaced by 200 mM Tris, pH 8.8. ADAM17/TACE (Sf 21 (baculovirus)-derived, R & D systems, Minneapolis, MO, USA) was diluted and evaluated in 25 mM Tris, 2.5 μM ZnCl2, 0.005% Brij-35, pH 9.0. All stocks of the compounds were evaluated for the presence of endotoxin using the EndoZyme II assay (Hyglos bioMérieux, Bernried am Starnberger See, Germany). Endotoxin levels in all concentrated stocks (2.5 mg/mL) were below the accepted limit of 0.5 EU/mL.
To determine the inhibition of gelatinolytic activity, we used a previously optimized gelatin degradation assay. […] […] […] BML-P126-0001, Enzo Life Sciences, Farmingdale, NY, USA) was used at a final concentration of 2.5 µg/mL. For ADAM17 the fluorogenic peptide Mca-PLAQAV-Dpa-RSSSR-NH2 (ES003, R & D systems, Minneapolis, MO, USA) and for neutrophil elastase the fluorogenic substrate MeOSuc-AAPV-AMC (cat. no. 324740, Merck Millipore, Darmstadt, Germany) were used. Proteolytic activity was determined by linear regression of the fluorescence curve and the percentage inhibition was calculated through comparison with the positive control (no inhibitors). When testing supernatants from human neutrophils, the assay was performed in the presence of 20 µM neutrophil elastase inhibitor (Elastase Inhibitor IV, Calbiochem, Darmstadt, Germany).

[2] = molecular target: T2, recombinant human MMP-9 trimers (Homo sapiens, UniProt P14780); assay: Gelatin degradation assay, recombinant MMP-9 trimers; format: biochemical
T2 construct: made in house; host or cells: Sf9 insect cells
Procedure: as §1
To determine the inhibition of gelatinolytic activity, we used a previously optimized gelatin degradation assay. Activated MMP-9, activated MMP-2, neutrophil elastase or supernatants of stimulated neutrophils, were incubated with different concentrations of inhibitors and incubated for 30 min at 37 °C. Next, dye-quenched gelatin (DQ™-gelatin, Invitrogen, Carlsbad, CA, USA) was added at a final concentration of 2.5 µg/mL and the increase in fluorescence over time was measured with the CLARIOstar microplate reader (BMG Labtech, Ortenberg, Germany). For other MMPs, the OmniMMP substrate peptide (Mca-PLGL-Dpa-AR-NH2, cat. no. BML-P126-0001, Enzo Life Sciences, Farmingdale, NY, USA) was used at a final concentration of 2.5 µg/mL. For ADAM17 the fluorogenic peptide Mca-PLAQAV-Dpa-RSSSR-NH2 (ES003, R & D systems, Minneapolis, MO, USA) and for neutrophil elastase the fluorogenic substrate MeOSuc-AAPV-AMC (cat. no. 324740, Merck Millipore, Darmstadt, Germany) were used. Proteolytic activity was determined by linear regression of the fluorescence curve and the percentage inhibition was calculated through comparison with the positive control (no inhibitors). When testing supernatants from human neutrophils, the assay was performed in the presence of 20 µM neutrophil elastase inhibitor (Elastase Inhibitor IV, Calbiochem, Darmstadt, Germany).

[3] = recombinant human MMP-9 (Sf9) tri, gelatin degradation

T2 sequence (P14780 107-707 limits assumed): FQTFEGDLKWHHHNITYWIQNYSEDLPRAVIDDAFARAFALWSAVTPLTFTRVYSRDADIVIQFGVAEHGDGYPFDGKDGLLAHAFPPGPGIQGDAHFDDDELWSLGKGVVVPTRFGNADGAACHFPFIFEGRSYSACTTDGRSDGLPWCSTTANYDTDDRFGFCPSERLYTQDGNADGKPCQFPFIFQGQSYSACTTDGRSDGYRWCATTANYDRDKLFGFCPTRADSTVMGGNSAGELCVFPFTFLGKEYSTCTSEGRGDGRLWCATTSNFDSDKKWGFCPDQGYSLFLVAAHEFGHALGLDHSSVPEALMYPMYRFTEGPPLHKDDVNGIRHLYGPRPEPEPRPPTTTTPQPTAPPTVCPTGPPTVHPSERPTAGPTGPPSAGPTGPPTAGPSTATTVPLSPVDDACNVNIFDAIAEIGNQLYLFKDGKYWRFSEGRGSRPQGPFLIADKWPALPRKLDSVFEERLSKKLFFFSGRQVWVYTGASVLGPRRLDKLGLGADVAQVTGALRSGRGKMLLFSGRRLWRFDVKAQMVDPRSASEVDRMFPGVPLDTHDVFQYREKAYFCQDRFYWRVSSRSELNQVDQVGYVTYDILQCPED
T1 sequence (P14780 107-707 limits assumed): as above

Q: What does the source list for CC(C)[C@H](C(=O)O)N(CCNC(=O)c1cccc(C(=O)NCCN([C@@H](C(=O)O)C(C)C)S(=O)(=O)c2ccc(-c3ccccc3)cc2)c1)S(=O)(=O)c1ccc(-c2ccccc2)cc1 [Compound 7]?
A: IC25 [1]: 1.4 nM; IC50 [1]: 15 nM; IC75 [1]: 169 nM; IC50 [2, 3]: 0.18 nM; IC75 [2, 3]: 0.018 µM; fold more potent at inhibiting gelatinolysis by trimeric versus monomeric MMP-9 ([2]; recombinant human MMP-9, gelatin substrate): over 1000 fold

Q: With CC(C)[C@H](C(=O)O)N(CCNC(=O)c1ccccc1)S(=O)(=O)c1ccc(-c2ccccc2)cc1 [Compound 5] as the molecule, how does the IC25 [1] read?
A: 228 nM

Q: And the IC50 [1]?
A: 726 nM

Q: And the IC75 [1]?
A: 2309 nM

Q: And the IC25 [2, 3]?
A: 526 nM

Q: And the IC50 [2, 3]?
A: 2250 nM

Q: What about the IC75 [2, 3] of the same molecule?
A: 9.66 µM
